The values that follow come from patent publication US10357486B2, “Treatment of cognitive impairment with PDE4 inhibitor” (Universiteit Maastricht, priority 2013, dated 2019).

One series relates to phosphodiesterase 4. As to conditions: after administration of roflumilast; stated as believed; cited from earlier work.
Series [1] can be described thus: Plasma concentration levels of roflumilast and roflumilast-N-oxide in humans. The format is in vivo, human. An excerpt: An interim analysis has been performed based on the data of 9 subjects of the Impaired Elderly group and 4 subjects of the Healthy Elderly group. For this purpose, cognitive battery test scores (VLT, SMT, Stroop task and BL-VAS) and concentrations of roflumilast and roflumilast-N-oxide in plasma have been analysed and summarized by dose over each scheduled sampling time using descriptive statistics.

Series [2] has as its system xylazine/ketamine induced α2-adrenergic receptor-mediated anesthesia. The series can be described thus: xylazine/ketamine induced α2-adrenergic receptor-mediated anesthesia test (emetic potential). Type of series: in vivo. As to conditions: in vivo, 0.3 mg/kg. From the text:
Since emesis is a typical side-effect of phosphodiesterase 4 inhibitors the emetic potential of roflumilast and rolipram was investigated in parallel using the xylazine/ketamine induced α2-adrenergic receptor-mediated anesthesia test. The results confirmed that the two phosphodiesterase 4 inhibitors have different effects on emesis.

The test system of series [3] is spatial memory in male C57BL/6NCrl mice. The series can be described thus: Object Location Task (OLT), 24-hour retention interval. The format is in vivo. The settings on record: for d2 index, discrimination index between the new and familiar objects for T2: given 3 hours after T1, T2 after 24 h, mean (SEM). From the text:
The objective of this study was to evaluate the cognitive improvement effects of Roflumilast on spatial memory employing Object Location Task (OLT) in male C57BL/6NCrl mice. Roflumilast was compared with data of the already established PDE4 inhibitor Rolipram in the same model.
Maintenance of Animals Twenty-four 7 month-old male C57BL/6NCrl mice (Charles River, L'Arbresle, France) were used (average body weights: 27.6 g). The animals were kept under a 12/12-hour light/dark cycle (lights on from 07.00 pm to 07.00 am) with free access to food and water. All testing was done between 09.00 am and maximally 06.00 pm.
Preparation of Compounds for Administration Both rolipram (Sigma-Aldrich St. Louis, USA; MW 275.34) and roflumilast (Biocrea, Radebeul, Germany; MW 403.21) were dissolved in dimethylsulfoxide (DMSO) and kept at 4 ° C.; this stock solution was used for further dilutions in 0.5% methylcellulose. Each of rolipram and roflumilast is used in form of its free base. All injected solutions consisted of 0.5% methylcellulose with a fixed DMSO percentages (1.2%) (vehicle).
Object Location Task Studies in Rodents For the Object Location Task (OLT), doses of 0.01 mg/kg, 0.03 mg/kg and 0.1 mg/kg of Rolipram or Roflumilast or vehicle were administered subcutaneously (s.c.). Based on previous findings, PDE4 inhibitor single administration was performed 3 hours after the first trial as this has an optimum effect on object memory performance. The injection volume was 5 μl/g.
The OLT apparatus consisted of a circular arena, 40 cm in diameter. Half of the 40 cm transparent polyvinyl chloride wall was covered from the outside with white paper. Two objects were placed symmetrically about 10 cm away from the wall on the separation line, between the transparent and covered side of the arena. Four different sets of objects were available: (1) a cone made of brass (maximal diameter 6 cm and total height 3.8 cm), (2) a transparent glass bottle (diameter 2.7 cm, height 8.5 cm) filled with sand and water, (3) a massive metal cube (2.5 cm×5 cm×7.5 cm) with two holes (diameter 1.5 cm), and (4) a massive aluminum cube with a tapering top (4.5 cm×4.5 cm×8.5 cm).
A testing session comprised two trials of 4 minutes. Before each trial, mice were placed in an empty Makrolon cage (incubation cage) for the same amount of time as the trial (4 min). During the first trial (T1), two identical objects were placed symmetrically about 10 cm away from the wall on the separation line between the transparent and covered side of the arena. After the first exploration period of 4 min, the mouse was put back in its home cage. Mice then received treatment at 3 hours post T1. Subsequently, after a predetermined delay interval (24h), the mouse was placed in the apparatus for the second trial of 4 min (T2). Two identical objects as in T1 were used; one object was placed in the previously used position, whereas the other was placed in a novel position. The novel position of the object could either be a fixed distance towards the front or a fixed distance towards the back of the arena for both objects. The times spent exploring each object during T1 and T2 were recorded manually using a personal computer. All objects and locations were used in a balanced manner to exclude possible object and/or location preferences. To avoid olfactory cues, the objects were thoroughly cleaned with 70% ethanol after each trial. The testing order of conditions was determined randomly.
Statistical Data Analysis The measurements reflected the time spent by the mice in exploring each object during T1 and T2. The time spent in exploring the two identical samples in T1 were represented by ‘a1’ and ‘a2’, respectively. The time spent in exploring the sample and the new object in T2 were represented by ‘a’ and ‘b’, respectively. From these exploration times the following variables were calculated: e1, e2, and d2 (Table 1). The d2 index is a relative measure of discrimination corrected for exploratory activity. […]

The test system of series [4] is scopolamine induced memory deficit in male Wistar rats. The series can be described thus: Object recognition task (ORT), scopolamine induced memory deficit. As to conditions: scopolamine 0.1 mg/kg ip + vehicle. The format is in vivo. From the text: The objective of this study is to evaluate the efficacious dose range of roflumilast with regard to cognitive improvement effects by using scopolamine induced memory deficit on object memory performance in male Wistar rats. Memory acquisition processes are investigated using the object recognition test (ORT).
Maintenance of Animals: Sixteen 3-4 month old male Wistar rats (Charles River, Sulzfeld, Germany) were used for the study. All animals were housed individually in standard green line Tecniplast IVC cages on stardust bedding. The animals were housed on a reversed 12/12 h light/dark cycle (lights on from 07:00 pm to 07:00 am) and had free access to food and water. The rats were housed and tested in the same room. A radio, playing softly, provided background noise in the room. All testing was performed between 09:00 am and 06:00 pm.
Preparation of Compounds: Drugs were prepared daily, except as indicated otherwise. Roflumilast (Takeda, Konstanz, Germany, MW 403.21) was dissolved in 98% methylcellulose solution (0.5% methylcellulose) and 2% Tween 80. Roflumilast in doses of 0 (vehicle), 0.0001, 0.0003, 0.001, 0.003, 0.01 and 0.03 mg/kg was administered intraperitoneally (ip, injection volume 1 ml/kg). Scopolamine (in form of scopolamine hydrobromide) was dissolved in saline (0.9% NaCl). Scopolamine hydrobromide was administered intraperitoneally at a dose of 0.1 mg/kg (ip, injection volume 1 ml/kg). Scopolamine and roflumilast were administered 30 min before T1.
Object Recognition Task in Rats: The ORT was performed as described elsewhere (Ennaceur and Delaceur, 1988, Behav Brain Res, Vol 31, pp 47-59; Akkerman et al; 2012, Behav Brain Res, Vol 232, pp 335-347). The apparatus consisted of a circular arena, 83 cm in diameter. The back half of the 40 cm high wall was made of grey PVC and the front was made of transparent PVC. Fluorescent red tubes and a light bulb provided a constant illumination of about 20 lux on the floor of the apparatus. The light intensity was equal in the different parts of the apparatus.
Two objects were placed in symmetrical positions at the mid-line between the gray and transparent halves of the arena, about ten centimeters away from wall. Four different sets of objects were available: 1) a standard 1 L brown transparent glass bottle (diameter 10 cm, height 22 cm) filled with water, 2) a metal cube (10.0×5.0×7.5 cm) with two holes (diameter 1.9 cm), 3) a cone consisting of a gray PVC base (maximal diameter 18 cm) with a collar on top made of brass (total height 16 cm), and 4) an aluminium cube with a tapering top (13.0×8.0×8.0 cm). Objects were presented to the animals in a balanced manner to avoid object or place biases. Rats were unable to displace the objects.
A test session comprised two trials, each with durations of 3 min. During the learning trial (T1) the apparatus contains two identical objects (object al and a2). Rats were always introduced into the apparatus with their nose towards the transparent wall segment (i.e. facing outwards to the front of the arena). Subsequently, rats were put back in its home cage for a 1 h interval. After the retention interval, rats were put back into the arena for the […] (T2). In T2, the two objects from T1 were replaced by one identical copy (a3) and a different novel object (b). The times spent in exploring each object during T1 and T2 were recorded manually on a personal computer.
Exploration was defined in the following manner: directing the nose to the object at a distance of no more than 2 cm and/or touching the object with the nose. Sitting on the object was not considered as exploratory behavior. In order to avoid the presence of olfactory cues, the objects were thoroughly cleaned with a 70% ethanol solution before each trial.
Prior to compound testing, the animals were handled for 5 min on 2 consecutive days and allowed to explore the ORT arena, also for 5 min. […]

Marks after values point to notes of the source that are not given here.

For the molecule `O=C(Nc1c(Cl)c[n+]([O-])cc1Cl)c1ccc(OC(F)F)c(OCC2CC2)c1` [roflumilast-N-oxide, 3-cyclopropyl-methoxy-4-difluoromethoxy-N-(3,5-dichloro-1-oxypyrid-4-yl)benzamide], the “share of overall phosphodiesterase 4 inhibition in humans” value in the series on phosphodiesterase 4 is “more than 90%”. In addition, the “exposure (concentrations in plasma)” value in series [1] (elderly study, interim analysis, 100, 250, 1000 mcg) is on record as “consistent with those previously reported”. The “steady state plasma concentration levels in once a day repeated dosing compared to once a day single dosing” value in series [1] (humans, once a day (24 h) regimen) is given as “about two-fold”.
As to `COc1ccc(C2CNC(=O)C2)cc1OC1CCCC1` (stereo not drawn) [rolipram], the emetic potential entry in series [2] is listed as “strong emetic potential”. Further, the “d2 index, discrimination index between the new and familiar objects for T2” value in series [3] (0.01 mg/kg s.c.) is listed as 0.08 (0.05); in series [3] (0.03 mg/kg s.c.), 0.13 (0.05) #; in series [3] (0.1 mg/kg s.c.), 0.07 (0.05). Further, the “d2 index compared with the vehicle condition (post-hoc Bonferroni t-test)” value in series [3] (0.03 mg/kg s.c.) is “differed significantly from the vehicle condition”. The “d2 index compared with zero (one-sample t-test)” value in series [3] (0.03 mg/kg s.c., after twenty-four hours) is on record as “significantly differed from zero”. In series [3] (single subcutaneous administration of 0.03 mg/kg), the “effect on spatial memory measured by the object location task test” value is given as “effective”.
With `CN1[C@@H]2C[C@@H](OC(=O)[C@H](CO)c3ccccc3)C[C@H]1[C@@H]1O[C@@H]12` [scopolamine], the “d2 value compared to the vehicle condition (post-hoc Bonferroni t-test)” value in series [4] is given as “significantly lower”. The “d2 (discrimination index)” value in series [4] (1 h retention, mean (SEM)) is recorded as 0.01 (0.08).
